Source: patent publication US20100075957A1, “AMINODIHYDROTHIAZINE DERIVATIVES SUBSTITUTED WITH A CYCLIC GROUP” (SHIONOGI & CO., LTD., priority 2007, published 2010)

What follows are compounds tested against T1, Recombinant human BACE-1 (Homo sapiens, UniProt P56817) (assay: Assay of β-secretase-inhibiting activity). Conditions: Recombinant human BACE-1 7.4 nM, substrate peptide 18 nM, pH 5.0, 30° C., 3 hours; Table 140; read-out: IC50.
T1 construct: purchased R&D Systems
Type: biochemical
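Also: substrate is a peptide carrying biotin and europium cryptate, after the enzyme reaction, Streptavidin-XL665 is added and incubated 1 h at 30 °C before fluorescence reading.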

T1 sequence (P56817 46-501): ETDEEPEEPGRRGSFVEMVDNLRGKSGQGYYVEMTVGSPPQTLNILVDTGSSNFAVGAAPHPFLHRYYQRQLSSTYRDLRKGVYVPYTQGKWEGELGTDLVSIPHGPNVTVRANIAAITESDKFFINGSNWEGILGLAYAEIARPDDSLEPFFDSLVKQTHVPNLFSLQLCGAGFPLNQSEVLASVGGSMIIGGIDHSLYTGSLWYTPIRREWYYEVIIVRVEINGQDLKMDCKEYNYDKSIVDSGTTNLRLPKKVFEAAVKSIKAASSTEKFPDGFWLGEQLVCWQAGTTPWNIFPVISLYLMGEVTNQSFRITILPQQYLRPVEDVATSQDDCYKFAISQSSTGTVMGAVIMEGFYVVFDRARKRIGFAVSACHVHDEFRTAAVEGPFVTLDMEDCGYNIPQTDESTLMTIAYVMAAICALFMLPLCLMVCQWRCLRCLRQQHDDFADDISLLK

Row | Structure (SMILES) | IC50
1 | CC(=O)c1ccc(C(=O)Nc2ccc(F)c([C@]3(C)CCSC(N)=N3)c2)s1 [Compound 530] | 90 nM
2 | C[C@@]1(c2cc(NC(=O)c3cnc(-c4ccsc4)cn3)ccc2F)CCSC(N)=N1 [Compound 537] | 20 nM
3 | Cc1cnc(C(=O)Nc2ccnc([C@]3(C)CCSC(N)=N3)c2)cn1 [Compound 551] | 20 nM
4 | C[C@@]1(c2cc(NC(=O)c3ccc(OCC(N)=O)cn3)ccc2F)CCSC(N)=N1 [Compound 559] | 420 nM
5 | Cc1cnc(C(=O)Nc2cccc([C@]3(C)CCSC(N)=N3)c2)cn1 [Compound 563] | 20 nM
6 | C[C@@]1(c2cc(NC(=O)c3ccc(OCC#CCN)cn3)ccc2F)CCSC(N)=N1 [Compound 566] | 180 nM
7 | Cc1cnn(-c2cnc(C(=O)Nc3ccc(F)c([C@]4(C)CCSC(N)=N4)c3)cn2)c1 [Compound 577] | 30 nM
8 | Cc1cc(C)n(-c2cnc(C(=O)Nc3ccc(F)c([C@]4(C)CCSC(N)=N4)c3)cn2)n1 [Compound 579] | 140 nM
9 | C[C@@]1(c2cc(NC(=O)c3cnc(-n4ccc(C(F)(F)F)n4)cn3)ccc2F)CCSC(N)=N1 [Compound 580] | 130 nM
10 | Cc1cncc(C(=O)Nc2ccc(F)c([C@]3(C)CCSC(N)=N3)c2)n1 [Compound 585] | 60 nM
11 | COc1cnc(C(=O)Nc2cccc([C@]3(C)CCSC(N)=N3)n2)cn1 [Compound 589] | 60 nM
12 | COCCOc1cnc(C(=O)Nc2cc([C@]3(C)CCSC(N)=N3)ccn2)cn1 [Compound 591] | 100 nM
13 | Cc1cnc(C(=O)Nc2cc([C@]3(C)CCSC(N)=N3)ccn2)cn1 [Compound 593] | 280 nM
14 | Cc1cnc(C(=O)Nc2cccc([C@]3(C)CCSC(N)=N3)n2)cn1 [Compound 594] | 170 nM

Same assay, conditions: Recombinant human BACE-1 7.4 nM, substrate peptide 18 nM, pH 5.0, 30° C., 3 hours; time-resolved fluorescence ratio 665/620; read-out: IC50 values (50% inhibitory concentration against the enzymatic activity)

Row | Structure (SMILES) | IC50
15 | Cc1nc(-c2ccc(C(=O)Nc3ccc(F)c([C@]4(C)CCSC(N)=N4)c3)cc2)no1 [Compound 531] | ≤ 1000 nM
16 | Cc1ccc(C(=O)Nc2ccc(F)c([C@]3(C)CCSC(N)=N3)c2)s1 [Compound 532] | ≤ 1000 nM
17 | Cc1csc(C(=O)Nc2ccc(F)c([C@]3(C)CCSC(N)=N3)c2)c1 [Compound 533] | ≤ 1000 nM
18 | C[C@@]1(c2cc(NC(=O)c3cc4ccccc4[nH]3)ccc2F)CCSC(N)=N1 [Compound 536] | ≤ 1000 nM
19 | C[C@@]1(c2cc(NC(=O)c3cc4cccnc4s3)ccc2F)CCSC(N)=N1 [Compound 539] | ≤ 1000 nM
20 | C[C@@]1(c2cc(NC(=O)c3cc4ccccc4o3)ccc2F)CCSC(N)=N1 [Compound 540] | ≤ 1000 nM
21 | Cc1cscc1-c1cnc(C(=O)Nc2ccc(F)c([C@]3(C)CCSC(N)=N3)c2)cn1 [Compound 541] | ≤ 1000 nM
22 | C[C@@]1(c2cc(NC(=O)c3cc4ccccc4s3)ccc2F)CCSC(N)=N1 [Compound 545] | ≤ 1000 nM
23 | C[C@@]1(c2cc(NC(=O)c3cc4cc(C(F)(F)F)ccc4s3)ccc2F)CCSC(N)=N1 [Compound 546] | ≤ 1000 nM
24 | COc1cnc(C(=O)Nc2cncc([C@]3(C)CCSC(N)=N3)c2)cn1 [Compound 547] | ≤ 1000 nM
25 | COc1cnc(C(=O)Nc2ccnc([C@]3(C)CCSC(N)=N3)c2)cn1 [Compound 548] | ≤ 1000 nM
26 | COCCOc1cnc(C(=O)Nc2ccnc([C@]3(C)CCSC(N)=N3)c2)cn1 [Compound 549] | ≤ 1000 nM
27 | Cc1cnc(C(=O)Nc2cncc([C@]3(C)CCSC(N)=N3)c2)cn1 [Compound 550] | ≤ 1000 nM
28 | C[C@@]1(c2cc(NC(=O)c3ccc(Cl)cn3)ccn2)CCSC(N)=N1 [Compound 552] | ≤ 1000 nM
29 | Cn1ccnc1C(=O)Nc1ccc(F)c([C@]2(C)CCSC(N)=N2)c1 [Compound 553] | ≤ 1000 nM
30 | Cc1nc(C(=O)Nc2ccc(F)c([C@]3(C)CCSC(N)=N3)c2)c(C)o1 [Compound 554] | ≤ 1000 nM
31 | COc1cnc(C(=O)Nc2cncc([C@]3(C)CCSC(N)=N3)c2)c(N)n1 [Compound 555] | ≤ 1000 nM
32 | C#CCOc1cnc(C(=O)Nc2cncc([C@]3(C)CCSC(N)=N3)c2)cn1 [Compound 556] | ≤ 1000 nM
33 | C[C@@]1(c2cncc(NC(=O)c3cnc(OCCF)cn3)c2)CCSC(N)=N1 [Compound 557] | ≤ 1000 nM
34 | COc1cnc(C(=O)Nc2cncc([C@]3(C)CC(C)(C)SC(N)=N3)c2)c(N)n1 [Compound 558] | ≤ 1000 nM
35 | COc1cnc(C(=O)Nc2cncc([C@]3(C)CC(C)(C)SC(N)=N3)c2)cn1 [Compound 560] | ≤ 1000 nM
36 | C#CCOc1cnc(C(=O)Nc2cncc([C@]3(C)CC(C)(C)SC(N)=N3)c2)cn1 [Compound 561] | ≤ 1000 nM
37 | COCCOc1cnc(C(=O)Nc2cncc([C@]3(C)CC(C)(C)SC(N)=N3)c2)cn1 [Compound 562] | ≤ 1000 nM

Row | Structure (SMILES) | IC50
38 | COc1cnc(C(=O)Nc2cncc([C@]3(C)CCSC(N)=N3)c2)c(C)c1 [Compound 564] | ≤ 1000 nM
39 | C[C@@]1(c2cccc(NC(=O)c3cnc(OCCF)cn3)c2)CCSC(N)=N1 [Compound 565] | ≤ 1000 nM
40 | C[C@@]1(c2cc(NC(=O)c3ccc(OCC#CCO)cn3)ccc2F)CCSC(N)=N1 [Compound 567] | ≤ 1000 nM
41 | CC1(C)C[C@@](C)(c2cncc(NC(=O)c3cnc(OCCF)cn3)c2)N=C(N)S1 [Compound 568] | ≤ 1000 nM
42 | CNCC#CCOc1ccc(C(=O)Nc2ccc(F)c([C@]3(C)CCSC(N)=N3)c2)nc1 [Compound 569] | ≤ 1000 nM
43 | CN(C)CC#CCOc1ccc(C(=O)Nc2ccc(F)c([C@]3(C)CCSC(N)=N3)c2)nc1 [Compound 570] | ≤ 1000 nM
44 | COCC#CCOc1ccc(C(=O)Nc2ccc(F)c([C@]3(C)CCSC(N)=N3)c2)nc1 [Compound 571] | ≤ 1000 nM
45 | C[C@@]1(c2cncc(NC(=O)c3ncc(Cl)cc3Cl)c2)CCSC(N)=N1 [Compound 572] | ≤ 1000 nM
46 | C[C@@]1(c2cc(NC(=O)c3ccc(OCC#CCCl)cn3)ccc2F)CCSC(N)=N1 [Compound 573] | ≤ 1000 nM
47 | C[C@@]1(c2cncc(NC(=O)c3ncc(C(F)(F)F)cc3Cl)c2)CCSC(N)=N1 [Compound 574] | ≤ 1000 nM
48 | CC1(C)C[C@@](C)(c2cncc(NC(=O)c3ncc(C(F)(F)F)cc3Cl)c2)N=C(N)S1 [Compound 575] | ≤ 1000 nM
49 | Cc1cn(-c2cnc(C(=O)Nc3ccc(F)c([C@]4(C)CCSC(N)=N4)c3)cn2)cn1 [Compound 578] | ≤ 1000 nM
50 | C[C@@]1(c2cncc(NC(=O)c3ccc(Cl)cn3)n2)CCSC(N)=N1 [Compound 581] | ≤ 1000 nM
51 | COc1cnc(C(=O)Nc2cnc(Cl)c([C@]3(C)CCSC(N)=N3)c2)cn1 [Compound 582] | ≤ 1000 nM
52 | COCCOc1cnc(C(=O)Nc2cnc(Cl)c([C@]3(C)CCSC(N)=N3)c2)cn1 [Compound 583] | ≤ 1000 nM
53 | Cc1nc(C(=O)Nc2cnc(Cl)c([C@]3(C)CCSC(N)=N3)c2)co1 [Compound 584] | ≤ 1000 nM
54 | Cc1nc(C(=O)Nc2cnc(Cl)c([C@]3(C)CCSC(N)=N3)c2)c(C)o1 [Compound 586] | ≤ 1000 nM
55 | C[C@@]1(c2cc(NC(=O)c3cccc(F)n3)ccc2F)CCSC(N)=N1 [Compound 587] | ≤ 1000 nM
56 | COCCOc1cnc(C(=O)Nc2cncc([C@]3(C)CCSC(N)=N3)c2)cn1 [Compound 590] | ≤ 1000 nM
57 | COCCOc1cnc(C(=O)Nc2cccc([C@]3(C)CCSC(N)=N3)n2)cn1 [Compound 592] | ≤ 1000 nM
58 | CC#CCOc1cnc(C(=O)Nc2cncc([C@]3(C)CCSC(N)=N3)c2)cn1 [Compound 595] | ≤ 1000 nM
59 | CC#CCOc1cnc(C(=O)Nc2cc([C@]3(C)CCSC(N)=N3)ccn2)cn1 [Compound 596] | ≤ 1000 nM
